Test results: patent publication US6235516A, “Biocatalysts with amine acylase activity” (Novartis AG, priority 1996, dated 2001)

Legend:
AcR5b-acylase [1] = experiment: Stability of the AcR5b-acylase during freezing, with and without cryoprotective agents; assay type: physicochemical, Arthrobacter aurescens AcR5b
AcR5b-acylase [2] = experiment: Dependence of the reaction velocity of the AcR5b-acylase on substrate concentration (Km, Vmax); assay type: biochemical, Arthrobacter aurescens AcR5b
Method: Activity assays are performed under the standard conditions given in example 11 with an incubation time of 30 min. using different initial concentrations of (R)-N-acetyl-1-phenylethylamine and racemic N-acetyl-(m-cyano-phenyl)ethylamine. The final AcR5b-acylase preparation obtained in example 4d, which has been diluted 20 fold with 69 mM potassium phosphate buffer, pH 7, serve as the enzyme source. The Michaelis constants (Km) and the maximum reaction velocities are calculated as described in example 9.

[3] = test system: whole cells of Rhodococcus globerulus K1/1; experiment: Amide hydrolysis with whole cells of Rhodococcus globerulus K1/1; assay type: cell-based; conditions: for Selectivity E: enantioselectivity of the hydrolysis; for e.e. (S)-Amine: formed amine, analysed as acetamide; for e.e. (R)-Amide: unconverted amide, chiral HPLC
Source text: (§1) When the conversion reaches about 50% (checked by HPLC) the solutions are acidified to pH 2 by adding 1 N HCl and extracted three times with dichloromethane to obtain the unconverted amides. The aqueous layers are neutralized with 1 N NaOH solution and extracted again three times with dichloromethane to recover the formed amines. Both organic phases are dried with MgSO4, filtered and the solvent is distilled off. The amides are used directly for optical purity determinations (HPLC), whereas the obtained amines are converted to the acetamides by adding 100 μl triethylamine and 100 μl acetic anhydride to each sample and then analyzed for the optical purity by "chiral" HPLC.
To 50 ml of a 10 mM solution in phosphate buffer pH 7.0 of each racemic amide listed in table 16, whole cells of Rhodococcus globerulus K1/1 (each obtained from 50 ml shake flask medium (see example 21), OD660 =2.0) is added. The deacetylation is performed at 30° C. under continuous shaking (200 rpm). The reaction is monitored by HPLC and after the conversion is about 50% the reaction mixtures are worked up in the same manner as described in example 22.

CC(=O)N[C@@H](C)c1ccccc1 = experiment: Dependence of the reaction velocity of the Ac6-acylase on substrate concentration (Km); assay type: biochemical, Rhodococcus equi Ac6; conditions: other: purified Ac6-acylase, pH 7, 30° C., 10 min, nonlinear regression
Method: Activity assay under the standard conditions given in example 1 with an incubation time of 10 min. are performed using different initial concentrations of (S)-N-acetyl-1-phenylethylamine and the final Ac6-acylase preparation obtained in example 4c, which has been diluted 5 fold with 69 mM potassium phosphate buffer, pH 7, as the enzyme source. The Michaelis constant Km is calculated from the substrate concentrations and the corresponding reaction velocities by numerical nonlinear regression with the program "SigmaPlot for Windows" (Jandel Scientific GmbH, Schimmelbusch, Germany) to the formula: v=Vm×S/(S+Km). v: reaction velocity (U/ml=mM/min.), Vm : maximum reaction velocity (U/ml), S=(S)-N-acetyl-1-phenylethylamine concentration (mM).

[4] = test system: acylase from Arthrobacter aurescens Ac5R; experiment: Enzymatic hydrolysis of racemic amides with highly purified acylase from Arthrobacter aurescens Ac5R; assay type: biochemical
Method: To 10 ml of a 20 mM solution of each of the racemic amides shown below 1 in 0.1 M phosphate buffer pH 7.0, 5 ml (1.3 units) of the enzyme is added and the solutions are shaken at 100 rpm and 30° C. [drawing 10] [drawing 11]
as §1

[5] = test system: whole cells of Rhodococcus globerulus K1/1; experiment: Hydrolysis of racemic 2-acetylamino-1(4-chlorophenyl)-4-pentene with whole cells of Rhodococcus globerulus K1/1; assay type: cell-based; conditions: 80 g racemic amide in 20 l, 21 h at 28° C.
Method: Strain K1/1 is grown according to example 3 in a 30 l fermenter filled with 20 l of basic medium containing 1 g/l of racemic N-acetyl-1-phenylethylamine. The cells are harvested by continuous centrifugation and resuspended in the reaction mixture, which is prepared by adding a solution of 80 g racemic 2-acetylamino-1(4-chlorophenyl)-4-pentene in 500 ml methanol to 20 l of potassium phosphate buffer, 69 mM, pH 7. After stirring for 21 h at 28° C. and 500 rpm the amine formed and the unreacted amide are separated and analyzed for their optical purity analogously to the procedure given in example 30.

[6] = AcR5b-acylase frozen 2.5 h at -20° C. with the cryoprotective agent of the label (label AcR5b-acylase = none)
[7] = AcR5b-acylase frozen 2.5 h at -80° C. with the cryoprotective agent of the label (label AcR5b-acylase = none)
[8] = AcR5b-acylase frozen 9 days at -20° C. with the cryoprotective agent of the label (label AcR5b-acylase = none)
[9] = AcR5b-acylase frozen 9 days at -80° C. with the cryoprotective agent of the label (label AcR5b-acylase = none)

| Relative activity (%) (AcR5b-acylase [1]; [6]) | Relative activity (%) (AcR5b-acylase [1]; [7]) | Relative activity (%) (AcR5b-acylase [1]; [8]) | Relative activity (%) (AcR5b-acylase [1]; [9]) | Compound | Selectivity E [3] | e.e. (S)-Amine [3] | e.e. (R)-Amide [3] | other results |
| --- | --- | --- | --- | --- | --- | --- | --- | --- |
| 100 | 100 | 100 | 92 | OC[C@H]1O[C@@](CO)(O[C@H]2O[C@H](CO)[C@@H](O)[C@H](O)[C@H]2O)[C@@H](O)[C@@H]1O [10% Saccharose, Saccharose] | – | – | – | – |
| – | – | – | – | CC(=O)NC(C)c1cccc(C#N)c1 (racemic) [racemic (m-cyano) derivative, N-acetyl-(m-cyano-phenyl)ethylamine] | – | – | – | Km (AcR5b-acylase [2]; 30 min incubation, pH 7): 10.4 mM; relative maximum reaction velocity (AcR5b-acylase [2]; (R)-N-acetyl-1-phenylethylamine = 100): 23% |
| – | – | – | – | C=CCC(Cc1ccccc1)NC(C)=O (racemic) [Substrate 10a] | 70 | 90.0 | 95.7 | – |
| – | – | – | – | Ac6-acylase (Rhodococcus equi 103S) | – | – | – | Km (CC(=O)N[C@@H](C)c1ccccc1): 0.6 mM |
| 100 | 100 | 89 | 97 | OCC(O)CO [5% Glycerol, Glycerol] | – | – | – | – |
| 77 | 100 | 98 | 90 | OCC(O)CO [50% Glycerol, Glycerol] | – | – | – | – |
| – | – | – | – | CC(=O)NC1CCOc2ccccc21 (racemic) [Substrate 6a] | 290 | 93.5 | > 99.9 | Selectivity E ([4]; enantioselectivity of the hydrolysis): 32; e.e. (R)-Amine ([4]; formed amine, analysed as acetamide by chiral HPLC): 90.5; e.e. (S)-Amide ([4]; unconverted amide, chiral HPLC): 46.6 |
| – | – | – | – | C=CC[C@H](N)Cc1ccc(Cl)cc1 [(S)-2-amino-1(4-chlorophenyl)-4-pentene] | – | – | – | ee of the formed amine [5]: > 99.9 % ee |
| – | – | – | – | CCCC(Cc1ccccc1)NC(C)=O (racemic) [Substrate 11a] | 35 | 77.8 | 97.8 | – |

| Compound | Relative activity (%) (AcR5b-acylase [1]; [6]) | Relative activity (%) (AcR5b-acylase [1]; [7]) | Relative activity (%) (AcR5b-acylase [1]; [8]) | Relative activity (%) (AcR5b-acylase [1]; [9]) | Selectivity E [3] | e.e. (S)-Amine [3] | e.e. (R)-Amide [3] | other results |
| --- | --- | --- | --- | --- | --- | --- | --- | --- |
| N.N.O=S(=O)(O)O [10% (NH4)2 SO4, (NH4)2 SO4] | 100 | 92 | 81 | 83 | – | – | – | – |
